# Experimental data from patent publication US20250339569A1, “CARBONIC ANHYDRASE IX LIGANDS” (priority 2021, published 2025).
# Read-outs that look alike come from different tables or passages of the source. Starred links: 1 amine or outer side, 2 acyl side, 3 side chain; linkers in the order of their positions; H or OH if unused. Positions of bridges follow the written chain, without caps; N, C: chain ends. Non-standard residues stand in square brackets, D forms with d. Residues, ends and D or L forms follow the SMILES beside them. *: point of attachment. X38 = O=C(Cc1cc(=O)[nH][nH]c1=O)Nc1cccc(C[C@H](N[*:1])C(=O)[*:2])c1; X30 = Cn1ncc(C(=O)Nc2cccc(C[C@H](N[*:1])C(=O)[*:2])c2)c1C#N; X34 = O=C(CCc1nc[nH]n1)Nc1cccc(C[C@H](N[*:1])C(=O)[*:2])c1; DOTA = O=C(O)CN1CCN(CC(=O)O)CCN(CC(=O)*)CCN(CC(=O)O)CC1; X22 = CC(C)CC(=O)Nc1cccc(C[C@H](N[*:1])C(=O)[*:2])c1; mXylylene = c1cc(C[*:1])cc(C[*:2])c1; X12 = O=C(CC1CCN([*:1])CC1)[*:2]; X2 = O=C(CN1CCC(N[*:1])CC1)[*:2]; 3Amb = NCc1cccc(C(=O)O)c1; 4Amb = NCc1ccc(C(=O)O)cc1; Dap = NC[C@H](N)C(=O)O; Inp = O=C(O)C1CCNCC1; GABA = NCCCC(=O)O
# Legend:
# [1] = target: T1, CAIX-expressing human HT-29 colorectal cancer cells (Homo sapiens, UniProt Q16790); test: FACS binding assay (IC50 determination, competition with tracer 3BP-2776 or 3BP-4149); details: FACS binding assay, HT-29 cells, 4° C., 1 hour, read-out: pIC50 category (activity) (converted)
# T1 construct: CAIX-expressing human HT-29 colorectal cancer cells; host or cells: HT-29 human colorectal cancer cells
# How it was run: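 HT-29 cells in FACS buffer (PBS, 1% FCS) at 500.000 cells/ml were exposed to compounds competing with a labelled tracer, with biotinylated compounds detected by 1 μg/mL APC-streptavidin for 30 min on ice. APC/Cy5 median fluorescence was read by flow cytometry and IC50 derived by 4PL fit.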
# [2] = target: T2, human carbonic anhydrase IX (hCAIX-Fc) (Homo sapiens, UniProt Q16790); test: Surface plasmon resonance assay with hCAIX-Fc; type: binding; details: 25° C.; for t1/2 category (activity): SPR dissociation half-life, hCAIX-Fc; for Kd: SPR, hCAIX-Fc captured, read-out: pKD category (activity) (converted)
# T2 construct: purchased SinoBliological (Sino Biological) 10107-H02H
# [3] = competition with tracer 3BP-2776 (10 nM, biotin-labeled)
# [4] = competition with tracer 3BP-4149 (3 nM, Cy5-labeled)
Structure (SMILES),"IC50 [1, 3]",t1/2 category (activity) [2],Kd [2],"IC50 [1, 4]"
CC(C)C[C@@H]1NC(=O)[C@H](Cc2c[nH]c3ccccc23)NC(=O)[C@H](CC(=O)O)NC(=O)[C@H]2CCCN2C(=O)[C@H](CCC(=O)O)NC(=O)[C@@H]2CSCc3cccc(c3)CSC[C@@H](C(N)=O)NC(=O)[C@H](CNC(=O)C[C@H](NC(=O)CN3CCC(NC(=O)CN4CCN(CC(=O)O)CCN(CC(=O)O)CCN(CC(=O)O)CC4)CC3)C(=O)N2)NC(=O)[C@H](Cc2c[nH]c3ccccc23)NC(=O)[C@H]([C@@H](C)O)NC1=O [3BP-4254] ({DOTA}-[X2]DCE[dP]DWLTW[Dap]C-NH2; lactam 2-11; linker 3-12 via mXylylene),< 10 nM,C (t1/2 between 2.1 and 5.0 minutes),< 10 nM,–
CC(C)C[C@@H]1NC(=O)[C@H](Cc2c[nH]c3ccccc23)NC(=O)[C@H](CC(=O)O)NC(=O)[C@H]2CCCN2C(=O)[C@H](CCC(=O)O)NC(=O)[C@@H]2CSCc3cccc(c3)CSC[C@@H](C(N)=O)NC(=O)[C@H](CNC(=O)C[C@H](NC(=O)C3CCN(C(=O)CN4CCN(CC(=O)O)CCN(CC(=O)O)CCN(CC(=O)O)CC4)CC3)C(=O)N2)NC(=O)[C@H](Cc2c[nH]c3ccccc23)NC(=O)[C@H]([C@@H](C)O)NC1=O [3BP-4256] ({DOTA-Inp}-DCE[dP]DWLTW[Dap]C-NH2; lactam 1-10; linker 2-11 via mXylylene),< 10 nM,C (t1/2 between 2.1 and 5.0 minutes),< 10 nM,–
CC(C)C[C@@H]1NC(=O)[C@H](Cc2c[nH]c3ccccc23)NC(=O)[C@H](CC(=O)O)NC(=O)[C@H]2CCCN2C(=O)[C@H](CCC(=O)O)NC(=O)[C@@H]2CSCc3cccc(c3)CSC[C@@H](C(N)=O)NC(=O)[C@H](CNC(=O)C[C@H](NC(=O)CC3CCN(C(=O)CN4CCN(CC(=O)O)CCN(CC(=O)O)CCN(CC(=O)O)CC4)CC3)C(=O)N2)NC(=O)[C@H](Cc2c[nH]c3ccccc23)NC(=O)[C@H]([C@@H](C)O)NC1=O [3BP-4259] ({DOTA}-[X12]DCE[dP]DWLTW[Dap]C-NH2; lactam 2-11; linker 3-12 via mXylylene),< 10 nM,D (t1/2≤2.0 minutes),< 10 nM,–
CC(C)C[C@@H]1NC(=O)[C@H](Cc2c[nH]c3ccccc23)NC(=O)[C@H](CC(=O)O)NC(=O)[C@H]2CCCN2C(=O)[C@H](CCC(=O)O)NC(=O)[C@@H]2CSCc3cccc(c3)CSC[C@@H](C(N)=O)NC(=O)[C@H](CNC(=O)C[C@H](NC(=O)c3cccc(CNC(=O)CN4CCN(CC(=O)O)CCN(CC(=O)O)CCN(CC(=O)O)CC4)c3)C(=O)N2)NC(=O)[C@H](Cc2c[nH]c3ccccc23)NC(=O)[C@H]([C@@H](C)O)NC1=O [3BP-4260] ({DOTA-3Amb}-DCE[dP]DWLTW[Dap]C-NH2; lactam 1-10; linker 2-11 via mXylylene),< 10 nM,D (t1/2≤2.0 minutes),< 10 nM,–
CC(C)C[C@@H]1NC(=O)[C@H](Cc2c[nH]c3ccccc23)NC(=O)[C@H](CC(=O)O)NC(=O)[C@H]2CCCN2C(=O)[C@H](CCC(=O)O)NC(=O)[C@@H]2CSCc3cccc(c3)CSC[C@@H](C(N)=O)NC(=O)[C@H](CNC(=O)C[C@H](NC(=O)c3ccc(CNC(=O)CN4CCN(CC(=O)O)CCN(CC(=O)O)CCN(CC(=O)O)CC4)cc3)C(=O)N2)NC(=O)[C@H](Cc2c[nH]c3ccccc23)NC(=O)[C@H]([C@@H](C)O)NC1=O [3BP-4261] ({DOTA-4Amb}-DCE[dP]DWLTW[Dap]C-NH2; lactam 1-10; linker 2-11 via mXylylene),< 10 nM,C (t1/2 between 2.1 and 5.0 minutes),< 10 nM,–
CC(C)C[C@@H]1NC(=O)[C@H](Cc2c[nH]c3ccccc23)NC(=O)[C@H](CC(=O)O)NC(=O)[C@H]2CCCN2C(=O)[C@H](CCC(=O)O)NC(=O)[C@@H]2CSCc3cccc(c3)CSC[C@@H](C(N)=O)NC(=O)[C@H](CNC(=O)C[C@H](NC(=O)CCCNC(=O)CN3CCN(CC(=O)O)CCN(CC(=O)O)CCN(CC(=O)O)CC3)C(=O)N2)NC(=O)[C@H](Cc2c[nH]c3ccccc23)NC(=O)[C@H]([C@@H](C)O)NC1=O [3BP-4263] ({DOTA-GABA}-DCE[dP]DWLTW[Dap]C-NH2; lactam 1-10; linker 2-11 via mXylylene),–,C (t1/2 between 2.1 and 5.0 minutes),< 10 nM,< 10 nM

# The remaining lines, values ahead:
"IC50 [1, 3]",t1/2 category (activity) [2],Kd [2],"IC50 [1, 4]",Structure (SMILES)
< 10 nM,A (t1/2>15.0 minutes),< 10 nM,–,CC(C)C[C@@H]1NC(=O)[C@H](Cc2c[nH]c3ccccc23)NC(=O)[C@H](CC(=O)O)NC(=O)[C@H]2CCCN2C(=O)[C@H](CCC(=O)O)NC(=O)[C@@H]2CSCc3cccc(c3)CSC[C@@H](C(N)=O)NC(=O)[C@H](CNC(=O)CC[C@H](NC(=O)[C@@H](NC(=O)CN3CCC(NC(=O)CN4CCN(CC(=O)O)CCN(CC(=O)O)CCN(CC(=O)O)CC4)CC3)C(C)C)C(=O)N2)NC(=O)[C@H](Cc2c[nH]c3ccccc23)NC(=O)[C@H]([C@@H](C)O)NC1=O [3BP-4175] ({DOTA}-[X2]VECE[dP]DWLTW[Dap]C-NH2; lactam 3-12; linker 4-13 via mXylylene)
< 10 nM,C (t1/2 between 2.1 and 5.0 minutes),< 10 nM,–,CC(C)C[C@@H]1NC(=O)[C@H](Cc2c[nH]c3ccccc23)NC(=O)[C@H](CC(=O)O)NC(=O)[C@H]2CCCN2C(=O)[C@H](CCC(=O)O)NC(=O)[C@@H]2CSCc3cccc(c3)CSC[C@@H](C(N)=O)NC(=O)[C@H](CC(=O)NC[C@H](NC(=O)[C@@H](NC(=O)CN3CCC(NC(=O)CN4CCN(CC(=O)O)CCN(CC(=O)O)CCN(CC(=O)O)CC4)CC3)C(C)C)C(=O)N2)NC(=O)[C@H](Cc2c[nH]c3ccccc23)NC(=O)[C@H]([C@@H](C)O)NC1=O [3BP-4176] ({DOTA}-[X2]V[Dap]CE[dP]DWLTWDC-NH2; lactam 3-12; linker 4-13 via mXylylene)
< 10 nM,B (t1/2 between 5.1 and 15.0 minutes),< 10 nM,–,CC(C)CC(=O)Nc1cccc(C[C@@H]2NC(=O)[C@H](CC(=O)O)NC(=O)[C@H]3CCCN3C(=O)[C@H](CCC(=O)O)NC(=O)[C@@H](NC(=O)[C@H](Cc3ccc(O)cc3)NC(=O)[C@@H](NC(=O)CN3CCC(NC(=O)CN4CCN(CC(=O)O)CCN(CC(=O)O)CCN(CC(=O)O)CC4)CC3)C(C)C)CSCc3cccc(c3)CSC[C@@H](C(N)=O)NC(=O)[C@H](CO)NC(=O)[C@H](Cc3c[nH]c4ccccc34)NC(=O)[C@H]([C@@H](C)O)NC(=O)[C@H](CC(C)C)NC2=O)c1 [3BP-4236] ({DOTA}-[X2]VYCE[dP]D[X22]LTWSC-NH2; linker 4-13 via mXylylene)
–,D (t1/2≤2.0 minutes),10 to 79.4 nM,100 to 794 nM,CC(C)C[C@@H]1NC(=O)[C@H](Cc2cccc(NC(=O)C[C@@H]3NC(=O)CNC3=O)c2)NC(=O)[C@H](CC(=O)O)NC(=O)[C@H]2CCCN2C(=O)[C@H](CCC(=O)O)NC(=O)[C@@H](NC(=O)[C@H](Cc2ccc(O)cc2)NC(=O)[C@@H](NC(=O)CN2CCC(NC(=O)CN3CCN(CC(=O)O)CCN(CC(=O)O)CCN(CC(=O)O)CC3)CC2)C(C)C)CSCc2cccc(c2)CSC[C@@H](C(N)=O)NC(=O)[C@H](CO)NC(=O)[C@H](Cc2c[nH]c3ccccc23)NC(=O)[C@H]([C@@H](C)O)NC1=O [3BP-4288]
–,D (t1/2≤2.0 minutes),10 to 79.4 nM,10 to 79.4 nM,CC(C)C[C@@H]1NC(=O)[C@H](Cc2cccc(NC(=O)c3cnn(C)c3C#N)c2)NC(=O)[C@H](CC(=O)O)NC(=O)[C@H]2CCCN2C(=O)[C@H](CCC(=O)O)NC(=O)[C@@H](NC(=O)[C@H](Cc2ccc(O)cc2)NC(=O)[C@@H](NC(=O)CN2CCC(NC(=O)CN3CCN(CC(=O)O)CCN(CC(=O)O)CCN(CC(=O)O)CC3)CC2)C(C)C)CSCc2cccc(c2)CSC[C@@H](C(N)=O)NC(=O)[C@H](CO)NC(=O)[C@H](Cc2c[nH]c3ccccc23)NC(=O)[C@H]([C@@H](C)O)NC1=O [3BP-4305] ({DOTA}-[X2]VYCE[dP]D[X30]LTWSC-NH2; linker 4-13 via mXylylene)
–,B (t1/2 between 5.1 and 15.0 minutes),< 10 nM,10 to 79.4 nM,CC(C)C[C@@H]1NC(=O)[C@H](Cc2cccc(NC(=O)Cc3cc(=O)[nH][nH]c3=O)c2)NC(=O)[C@H](CC(=O)O)NC(=O)[C@H]2CCCN2C(=O)[C@H](CCC(=O)O)NC(=O)[C@@H](NC(=O)[C@H](Cc2ccc(O)cc2)NC(=O)[C@@H](NC(=O)CN2CCC(NC(=O)CN3CCN(CC(=O)O)CCN(CC(=O)O)CCN(CC(=O)O)CC3)CC2)C(C)C)CSCc2cccc(c2)CSC[C@@H](C(N)=O)NC(=O)[C@H](CO)NC(=O)[C@H](Cc2c[nH]c3ccccc23)NC(=O)[C@H]([C@@H](C)O)NC1=O [3BP-4322] ({DOTA}-[X2]VYCE[dP]D[X38]LTWSC-NH2; linker 4-13 via mXylylene)
–,A (t1/2>15.0 minutes),< 10 nM,10 to 79.4 nM,CC(C)C[C@@H]1NC(=O)[C@H](Cc2cccc(NC(=O)CCc3nc[nH]n3)c2)NC(=O)[C@H](CC(=O)O)NC(=O)[C@H]2CCCN2C(=O)[C@H](CCC(=O)O)NC(=O)[C@@H](NC(=O)[C@H](Cc2ccc(O)cc2)NC(=O)[C@@H](NC(=O)CN2CCC(NC(=O)CN3CCN(CC(=O)O)CCN(CC(=O)O)CCN(CC(=O)O)CC3)CC2)C(C)C)CSCc2cccc(c2)CSC[C@@H](C(N)=O)NC(=O)[C@H](CO)NC(=O)[C@H](Cc2c[nH]c3ccccc23)NC(=O)[C@H]([C@@H](C)O)NC1=O [3BP-4324] ({DOTA}-[X2]VYCE[dP]D[X34]LTWSC-NH2; linker 4-13 via mXylylene)
